Converted amounts (≈) assume the structure as drawn.
What was measured:
[1] = test system: L1210; assay: Cytotoxicity against mouse L1210 cells; type: functional, cell-based
[2] = test system: KB; assay: Cytotoxicity against human KB cells; type: functional, cell-based

Row | Structure (SMILES) | IC50 [1] [µg/mL] | IC50 [2] [µg/mL]
1 | CC(C)=CC(=O)NCC(O)C1=CC(=O)c2nccc3c2c1nc1ccccc13 (configuration not stated) [CYSTODYTIN D] | 1.1 (≈ 2.95 µM) | 1.4 (≈ 3.75 µM)
2 | C/C=C(\C)C(=O)NCC(O)C1=CC(=O)c2nccc3c2c1nc1ccccc13 (configuration not stated) [CYSTODYTIN E] | 1.1 (≈ 2.95 µM) | 1.4 (≈ 3.75 µM)
3 | COC(CNC(=O)C=C(C)C)C1=CC(=O)c2nccc3c2c1nc1ccccc13 (configuration not stated) [CYSTODYTIN F] | 0.068 (≈ 0.176 µM) | 0.078 (≈ 0.201 µM)
4 | C/C=C(\C)C(=O)NCC(OC)C1=CC(=O)c2nccc3c2c1nc1ccccc13 (configuration not stated) [CYSTODYTIN G] | 0.068 (≈ 0.176 µM) | 0.078 (≈ 0.201 µM)
5 | CCCCCCCC/C=C/CCCCCCCC(=O)OC(CNC(=O)C=C(C)C)C1=CC(=O)c2nccc3c2c1nc1ccccc13 (configuration not stated) [CYSTODYTIN H] | 0.08 (≈ 0.125 µM) | 0.092 (≈ 0.144 µM)
6 | C/C=C(\C)C(=O)NCC(OC(=O)CCCCCCC/C=C/CCCCCCCC)C1=CC(=O)c2nccc3c2c1nc1ccccc13 (configuration not stated) [CYSTODYTIN I] | 0.08 (≈ 0.125 µM) | 0.092 (≈ 0.144 µM)
